How the values were obtained:
[1] = tested on: pathogenic bacteria causing bacterial angular leaf spot in cucumbers; experiment: In vitro bactericidal activity, bacterial angular leaf spot in cucumbers; format: cell-based, pseudomonas; settings: read-out: inhibitory rate; for inhibition at 1 ppm: dosage 1 ppm; for inhibition at 5 ppm: dosage 5 ppm
[2] = tested on: pathogenic bacteria causing bacterial wilt in tobacco; experiment: whole plant or invertebrate; format: cell-based, ralstonia; settings: read-out: inhibitory rate
[3] = tested on: pathogenic bacteria causing black shank in potatoes; experiment: In vitro bactericidal activity, black shank in potatoes; format: cell-based; settings: read-out: inhibitory rate; for inhibition at 1 ppm: dosage 1 ppm; for inhibition at 5 ppm: dosage 5 ppm
[4] = tested on: pathogenic bacteria causing stem rot in sweet potatoes; experiment: In vitro bactericidal activity, stem rot in sweet potatoes; format: cell-based, dikia; settings: read-out: inhibitory rate; for inhibition at 1 ppm: dosage 1 ppm; for inhibition at 5 ppm: dosage 5 ppm
[5] = tested on: pathogenic bacteria causing bacterial blight in rice; experiment: whole plant or invertebrate; format: cell-based, xanthomonas; settings: read-out: inhibitory rate
[6] = tested on: pathogenic bacteria causing fruit blotch in watermelons; experiment: In vitro bactericidal activity, fruit blotch in watermelons; format: cell-based, acidovorax; settings: read-out: inhibitory rate; for inhibition at 1 ppm: dosage 1 ppm; for inhibition at 5 ppm: dosage 5 ppm
[7] = tested on: pathogenic bacteria causing black rot in Chinese cabbages; experiment: In vitro bactericidal activity, black rot in Chinese cabbages; format: cell-based, xanthomonas; settings: Xanthomonas, read-out: inhibitory rate; for inhibition at 1 ppm: dosage 1 ppm; for inhibition at 5 ppm: dosage 5 ppm
[8] = tested on: pathogenic bacteria causing bacterial wilt in cassava; experiment: organism not typed; format: cell-based; settings: read-out: inhibitory rate
[9] = tested on: pathogenic bacteria causing fire blight in pears; experiment: In vitro bactericidal activity, fire blight in pears; format: cell-based, erwinia; settings: Erwinia, read-out: inhibitory rate; for inhibition at 1 ppm: dosage 1 ppm; for inhibition at 5 ppm: dosage 5 ppm
black shank in potatoes = experiment: Living crops in vivo protective activity, potatoes (root irrigation); settings: Solanum tuberosum, read-out: efficacy against black shank in potatoes; for pest or weed control at 5 ppm: dosage 5 ppm; for pest or weed control at 10 ppm: dosage 10 ppm
Procedure: Root irrigation was carried out on the potatoes for tests according to the designed concentration of the agents. The dosage for each plant was 200 mL and was kept consistent (also for the control). The black shank bacteria were inoculated on the second day after the application. The results were investigated according to the disease condition.

[10] = tested on: indoor potted cucumber seedlings; experiment: Effect of improving growth and development of crops; format: in vivo; set-up: Rate of growth rate increase (%): concentration or dose not given beside the values; settings: versus blank control; for Rate of chlorophyll content increase (%) / Rate of leaf area increase (%): 14 days after application; for Rate of growth rate increase (%): plant height 14 days after application; for Rate of leaf area increase (%): second leaf
In short: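 SPAD chlorophyll, plant height and second-leaf dimensions measured at application and 14 d later; leaf area from length (base to tip) and width (upper shoulder).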

cucumber seedlings = experiment: Safety for plant growth after application; format: in vivo; settings: dosage 200 ppm
In short: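 Compound applied to indoor cucumber seedlings in pots. Growth then scored: height increase rate, leaf chlorophyll, leaf area.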

[11] = tested on: bacterial wilt in tobacco; experiment: whole plant or invertebrate; settings: Nicotiana tabacum, read-out: efficacy against bacterial wilt in tobacco
[12] = tested on: stem rot in sweet potatoes; experiment: whole plant or invertebrate; settings: read-out: efficacy against stem rot in sweet potatoes
bacterial blight in rice = experiment: whole plant or invertebrate; settings: Oryza sativa, read-out: efficacy against bacterial blight in rice
[13] = tested on: fruit blotch in watermelons; experiment: whole plant or invertebrate; settings: read-out: efficacy against fruit blotch in watermelons
[14] = tested on: soft rot in Chinese cabbages; experiment: whole plant or invertebrate; settings: 48 h, read-out: efficacy against soft rot in Chinese cabbages

| SMILES | inhibition at 1 ppm [1] [%] | inhibition at 5 ppm [1] [%] | inhibition at 1 ppm [2] [%] | inhibition at 5 ppm [2] [%] | inhibition at 1 ppm [3] [%] | inhibition at 5 ppm [3] [%] | inhibition at 1 ppm [4] [%] | inhibition at 5 ppm [4] [%] | inhibition at 1 ppm [5] [%] | inhibition at 5 ppm [5] [%] | inhibition at 1 ppm [6] [%] | inhibition at 5 ppm [6] [%] | inhibition at 1 ppm [7] [%] | inhibition at 5 ppm [7] [%] | inhibition at 1 ppm [8] [%] | inhibition at 5 ppm [8] [%] | inhibition at 1 ppm [9] [%] | inhibition at 5 ppm [9] [%] | pest or weed control at 5 ppm (black shank in potatoes) [%] | pest or weed control at 10 ppm (black shank in potatoes) [%] | other results |
| --- | --- | --- | --- | --- | --- | --- | --- | --- | --- | --- | --- | --- | --- | --- | --- | --- | --- | --- | --- | --- | --- |
| COc1cc2c(cc1F)c(=O)c(C(=O)OCCCO)cn2C1CC1 [Compound 320] | ≥ 90 | ≥ 90 | ≥ 90 | ≥ 90 | ≥ 90 | ≥ 90 | ≥ 90 | ≥ 90 | ≥ 90 | ≥ 90 | ≥ 90 | ≥ 90 | ≥ 90 | ≥ 90 | ≥ 90 | ≥ 90 | ≥ 90 | ≥ 90 | ≥ 90 | ≥ 90 | Rate of chlorophyll content increase (%) [10]: 16%; Rate of growth rate increase (%) [10]: 14%; Rate of leaf area increase (%) [10]: 9%; safety for plant growth (discoloration, necrosis, wilt, malformation) (cucumber seedlings): safe for plant growth; pest or weed control at 5 ppm [11]: ≥ 90%; pest or weed control at 10 ppm [11]: ≥ 90%; pest or weed control at 5 ppm [12]: ≥ 90%; pest or weed control at 10 ppm [12]: ≥ 90%; pest or weed control at 5 ppm (bacterial blight in rice): ≥ 90%; pest or weed control at 10 ppm (bacterial blight in rice): ≥ 90%; pest or weed control at 5 ppm [13]: ≥ 90%; pest or weed control at 10 ppm [13]: ≥ 90%; pest or weed control at 5 ppm [14]: ≥ 90%; pest or weed control at 10 ppm [14]: ≥ 90% |
| CCOc1cc2c(cc1F)c(=O)c(C(=O)OCCCOC)cn2C1CC1 [Compound 315] | ≥ 90 | ≥ 90 | ≥ 90 | ≥ 90 | ≥ 90 | ≥ 90 | ≥ 90 | ≥ 90 | ≥ 90 | ≥ 90 | ≥ 90 | ≥ 90 | ≥ 90 | ≥ 90 | ≥ 90 | ≥ 90 | ≥ 90 | ≥ 90 | ≥ 90 | ≥ 90 | Rate of chlorophyll content increase (%) [10]: 12%; Rate of growth rate increase (%) [10]: 9%; Rate of leaf area increase (%) [10]: 11%; safety for plant growth (discoloration, necrosis, wilt, malformation) (cucumber seedlings): safe for plant growth; pest or weed control at 5 ppm [11]: ≥ 90%; pest or weed control at 10 ppm [11]: ≥ 90%; pest or weed control at 5 ppm [12]: ≥ 90%; pest or weed control at 10 ppm [12]: ≥ 90%; pest or weed control at 5 ppm (bacterial blight in rice): ≥ 90%; pest or weed control at 10 ppm (bacterial blight in rice): ≥ 90%; pest or weed control at 5 ppm [13]: ≥ 90%; pest or weed control at 10 ppm [13]: ≥ 90%; pest or weed control at 5 ppm [14]: ≥ 90%; pest or weed control at 10 ppm [14]: ≥ 90% |
| CN(C)c1cc2c(cc1F)c(=O)c(C(=O)OCCO)cn2C1CC1 [Compound 413] | ≥ 90 | ≥ 90 | ≥ 90 | ≥ 90 | ≥ 90 | ≥ 90 | ≥ 90 | ≥ 90 | ≥ 90 | ≥ 90 | ≥ 90 | ≥ 90 | ≥ 90 | ≥ 90 | ≥ 90 | ≥ 90 | ≥ 90 | ≥ 90 | ≥ 90 | ≥ 90 | Rate of chlorophyll content increase (%) [10]: 13%; Rate of growth rate increase (%) [10]: 15%; Rate of leaf area increase (%) [10]: 16%; safety for plant growth (discoloration, necrosis, wilt, malformation) (cucumber seedlings): safe for plant growth; pest or weed control at 5 ppm [11]: ≥ 90%; pest or weed control at 10 ppm [11]: ≥ 90%; pest or weed control at 5 ppm [12]: ≥ 90%; pest or weed control at 10 ppm [12]: ≥ 90%; pest or weed control at 5 ppm (bacterial blight in rice): ≥ 90%; pest or weed control at 10 ppm (bacterial blight in rice): ≥ 90%; pest or weed control at 5 ppm [13]: ≥ 90%; pest or weed control at 10 ppm [13]: ≥ 90%; pest or weed control at 5 ppm [14]: ≥ 90%; pest or weed control at 10 ppm [14]: ≥ 90% |
| COCCOC(=O)c1cn(C2CC2)c2cc(OC3CCCC3)c(F)cc2c1=O [Compound 296] | ≥ 90 | ≥ 90 | ≥ 90 | ≥ 90 | ≥ 90 | ≥ 90 | ≥ 90 | ≥ 90 | ≥ 90 | ≥ 90 | ≥ 90 | ≥ 90 | ≥ 90 | ≥ 90 | ≥ 90 | ≥ 90 | ≥ 90 | ≥ 90 | ≥ 90 | ≥ 90 | Rate of chlorophyll content increase (%) [10]: 16%; Rate of growth rate increase (%) [10]: 12%; Rate of leaf area increase (%) [10]: 11%; safety for plant growth (discoloration, necrosis, wilt, malformation) (cucumber seedlings): safe for plant growth; pest or weed control at 5 ppm [11]: ≥ 90%; pest or weed control at 10 ppm [11]: ≥ 90%; pest or weed control at 5 ppm [12]: ≥ 90%; pest or weed control at 10 ppm [12]: ≥ 90%; pest or weed control at 5 ppm (bacterial blight in rice): ≥ 90%; pest or weed control at 10 ppm (bacterial blight in rice): ≥ 90%; pest or weed control at 5 ppm [13]: ≥ 90%; pest or weed control at 10 ppm [13]: ≥ 90%; pest or weed control at 5 ppm [14]: ≥ 90%; pest or weed control at 10 ppm [14]: ≥ 90% |
| COCCOC(=O)c1cn(C2CC2)c2cc(N3CCOCC3)c(F)cc2c1=O [Compound 426, 2-methoxyethyl 1-cyclopropyl-6-fluoro-7-morpholinyl-4-oxo-1,4-dihydroquinoline-3-carboxylate] | ≥ 90 | ≥ 90 | ≥ 90 | ≥ 90 | ≥ 90 | ≥ 90 | ≥ 90 | ≥ 90 | ≥ 90 | ≥ 90 | ≥ 90 | ≥ 90 | ≥ 90 | ≥ 90 | ≥ 90 | ≥ 90 | ≥ 90 | ≥ 90 | ≥ 90 | ≥ 90 | Rate of chlorophyll content increase (%) [10]: 10%; Rate of growth rate increase (%) [10]: 9%; Rate of leaf area increase (%) [10]: 11%; safety for plant growth (discoloration, necrosis, wilt, malformation) (cucumber seedlings): safe for plant growth; pest or weed control at 5 ppm [11]: ≥ 90%; pest or weed control at 10 ppm [11]: ≥ 90%; pest or weed control at 5 ppm [12]: ≥ 90%; pest or weed control at 10 ppm [12]: ≥ 90%; pest or weed control at 5 ppm (bacterial blight in rice): ≥ 90%; pest or weed control at 10 ppm (bacterial blight in rice): ≥ 90%; pest or weed control at 5 ppm [13]: ≥ 90%; pest or weed control at 10 ppm [13]: ≥ 90%; pest or weed control at 5 ppm [14]: ≥ 90%; pest or weed control at 10 ppm [14]: ≥ 90% |
| COCCOC(=O)c1cn(C2CC2)c2cc(SCC(F)(F)F)c(F)cc2c1=O [Compound 390] | ≥ 90 | ≥ 90 | ≥ 90 | ≥ 90 | ≥ 90 | ≥ 90 | ≥ 90 | ≥ 90 | ≥ 90 | ≥ 90 | ≥ 90 | ≥ 90 | ≥ 90 | ≥ 90 | ≥ 90 | ≥ 90 | ≥ 90 | ≥ 90 | ≥ 90 | ≥ 90 | Rate of chlorophyll content increase (%) [10]: 17%; Rate of growth rate increase (%) [10]: 13%; Rate of leaf area increase (%) [10]: 15%; safety for plant growth (discoloration, necrosis, wilt, malformation) (cucumber seedlings): safe for plant growth; pest or weed control at 5 ppm [11]: ≥ 90%; pest or weed control at 10 ppm [11]: ≥ 90%; pest or weed control at 5 ppm [12]: ≥ 90%; pest or weed control at 10 ppm [12]: ≥ 90%; pest or weed control at 5 ppm (bacterial blight in rice): ≥ 90%; pest or weed control at 10 ppm (bacterial blight in rice): ≥ 90%; pest or weed control at 5 ppm [13]: ≥ 90%; pest or weed control at 10 ppm [13]: ≥ 90%; pest or weed control at 5 ppm [14]: ≥ 90%; pest or weed control at 10 ppm [14]: ≥ 90% |

From patent publication US20250313533A1, “QUINOLINE CARBOXYLIC ACID ESTER COMPOUND AND PREPARATION METHOD AND USE THEREOF” (priority 2019, published 2025)
